Holding throughout (format): cell-based
Assay [1] has as its system A549 human lung carcinoma cells. Kind of assay: MTS cell viability assay, A549 human lung carcinoma cells. The following applies: A549, 4 h compound incubation, MTS, read-out: IC50 Values, Cancerous Cells, Lung A549. In general terms: Tetrazolium assays rely on reduction of a dye to a coloured formazan, in cell work by metabolically active cells.
Assay [2] has as its system DLD-1 human colon carcinoma cells. Kind of assay: MTS cell viability assay, DLD-1 human colon carcinoma cells. The following applies: DLD-1, 4 h compound incubation, MTS, read-out: IC50 Values, Cancerous Cells, Colon DLD-1.
The subject of assay [3] is DU-145 human prostate carcinoma cells. The assay can be described thus: MTS cell viability assay, DU-145 human prostate carcinoma cells. The following applies: DU-145, 4 h compound incubation, MTS, read-out: IC50 Values, Cancerous Cells, Prostate DU-145.
The test system of assay [4] is K-562 human leukemia cells. The assay can be described thus: MTS cell viability assay, K-562 human leukemia cells. The following applies: K562, K-562, 4 h compound incubation, MTS, read-out: IC50 Values, Cancerous Cells, Leukemia K-562.
In assay [5] the test system is PACA-2 human pancreatic carcinoma cells. Kind of assay: MTS cell viability assay, PACA-2 human pancreatic carcinoma cells. The following applies: PACA-2, 4 h compound incubation, MTS, read-out: IC50 Values, Cancerous Cells, Pancreas PACA-2.
Assay [6] deals with NCM-460 normal colon epithelial cells. The assay can be described thus: MTS cell viability assay, NCM-460 normal colon epithelial cells. The following applies: for IC50: Homo sapiens, NCM460, NCM-460, 4 h compound incubation, MTS, read-out: IC50 Values, Normal Cells, Colon NCM-460; for Fold Selectivity (NCM-460/DLD1): ratio of IC50 NCM-460 / DLD1.

Usually IC50 stands for the concentration that inhibits the measured activity by half. On to `Cc1cc(C(=O)N2CCC3(CC2)CSC2=C(O3)c3ccccc3C(=O)C2=O)n(C)n1` [Compound 42, 1′-[(1,3-dimethyl-1H-pyrazol-5-yl)carbonyl]spiro[naphtho[1,2-b][1,4]oxathiine-2,4′-piperidine]-5,6-dione], for which the IC50 in assay [1] was 43 µM; in assay [2], 8.95 µM; in assay [3] it was 12.7 µM; in assay [4], 5.64 µM; in assay [5], 5.12 µM; in assay [6], 12.6 µM. Also, in assay [6], the “Fold Selectivity (NCM-460/DLD1)” value was 1.4.

Turning to `O=C1C(=O)c2ccccc2C2=C1SCC1(CCN(C(=O)c3ccoc3)CC1)O2` [Compound 43, 1′-(3-furoyl)spiro[naphtho[1,2-b][1,4]oxathiine-2,4′-piperidine]-5,6-dione], the IC50 in assay [1] was 9.96 µM; in assay [2], 2.26 µM; in assay [3], 4.12 µM; in assay [4], 2.77 µM; in assay [5], 2.14 µM; in assay [6], 9.44 µM. Also, the “Fold Selectivity (NCM-460/DLD1)” value in assay [6] was determined as 4.2.

On to `Cc1cc(C(=O)N2CCC3(CC2)CSC2=C(O3)c3ccccc3C(=O)C2=O)nn1C` [Compound 45, 1′-[(1,5-dimethyl-1H-pyrazol-3-yl)carbonyl]spiro[naphtho[1,2-b][1,4]oxathiine-2,4′-piperidine]-5,6-dione], for which the concentration for half-maximal inhibition (IC50) in assay [1] stood at 19.7 µM; in assay [2] it was 4 µM; in assay [3], 4.3 µM; in assay [4], 3.95 µM; in assay [5] it was 4.49 µM; in assay [6], 9.84 µM. In addition, the “Fold Selectivity (NCM-460/DLD1)” value in assay [6] is recorded as 2.5.

As for `CN(C)c1cccc(C(=O)N2CCC3(CC2)CSC2=C(O3)c3ccccc3C(=O)C2=O)c1` [Compound 46, 1′-[3-(dimethylamino)benzoyl]spiro[naphtho[1,2-b][1,4]oxathiine-2,4′-piperidine]-5,6-dione], the IC50 in assay [1] is above 100 µM; in assay [2], 5.26 µM; in assay [3], 5.03 µM; in assay [4] it was 9.61 µM; in assay [5], 4.24 µM; in assay [6], 28.6 µM. In assay [6], the “Fold Selectivity (NCM-460/DLD1)” value is reported as 5.4.

`O=C1C(=O)c2ccccc2C2=C1SCC1(CCN(C(=O)CSc3ccccc3)CC1)O2` [Compound 48, 1′-[(phenylthio)acetyl]spiro[naphtho[1,2-b][1,4]oxathiine-2,4′-piperidine]-5,6-dione]: the IC50 in assay [1] came out at 11.8 µM; in assay [2], 1.55 µM; in assay [3], 4.12 µM; in assay [4] it was 1.5 µM; in assay [5], 2.37 µM; in assay [6] it was 5.7 µM. For the same molecule, the “Fold Selectivity (NCM-460/DLD1)” value in assay [6] was determined as 3.7.

Turning to `O=C1C(=O)c2ccccc2C2=C1SCC1(CCN(C(=O)c3ccccc3I)CC1)O2` [Compound 49, 1′-(2-iodobenzoyl)spiro[naphtho[1,2-b][1,4]oxathiine-2,4′-piperidine]-5,6-dione], the concentration for half-maximal inhibition (IC50) in assay [1] turned out to be 5.58 µM; in assay [2] it was 2.87 µM; in assay [3], 4.11 µM; in assay [4], 1.8 µM; in assay [5], 2.39 µM; in assay [6], 7.72 µM. The “Fold Selectivity (NCM-460/DLD1)” value in assay [6] was 2.7.

As to `O=C1C(=O)c2ccccc2C2=C1SCC1(CCN(C(=O)C(Cl)c3ccccc3)CC1)O2` (stereo not drawn) [Compound 50, 1′-[chloro(phenyl)acetyl]spiro[naphtho[1,2-b][1,4]oxathiine-2,4′-piperidine]-5,6-dione], the IC50 was 5.41 µM in assay [1]; 1.54 µM in assay [2]; 3.55 µM in assay [3]; 1.44 µM in assay [4]; 1.42 µM in assay [5]; 7.14 µM in assay [6]. Moreover, the “Fold Selectivity (NCM-460/DLD1)” value in assay [6] is reported as 4.6.

Take `O=C1C(=O)c2ccccc2C2=C1SCC1(CCN(C(=O)c3cc4ccccc4s3)CC1)O2` [Compound 51, 1′-(1-benzothien-2-ylcarbonyl)spiro[naphtho[1,2-b][1,4]oxathiine-2,4′-piperidine]-5,6-dione]: the IC50 in assay [1] was above 100 µM; in assay [2], 11.6 µM; in assay [3] it was 5.52 µM; in assay [4], 10.3 µM; in assay [5], 4.28 µM; in assay [6], 33 µM. Also, the “Fold Selectivity (NCM-460/DLD1)” value in assay [6] is reported as 2.8.

As to `COC(=O)C(=O)N1CCC2(CC1)CSC1=C(O2)c2ccccc2C(=O)C1=O` [Compound 52, methyl (5,6-dioxo-5,6-dihydro-1′H-spiro[naphtho[1,2-b][1,4]oxathiine-2,4′-piperidine]-1′-yl)(oxo)acetate], the IC50 in assay [1] was determined as 14.4 µM; in assay [2], 4.15 µM; in assay [3] it was 4.49 µM; in assay [4], 2.71 µM; in assay [5] it was 3.92 µM; in assay [6], 10.1 µM. In assay [6], the “Fold Selectivity (NCM-460/DLD1)” value is recorded as 2.4.

Turning to `O=C1C(=O)c2ccccc2C2=C1SCC1(CCN(C(=O)c3cccc(C(F)(F)F)c3)CC1)O2` [Compound 54, 1′-[3-(trifluoromethyl)benzoyl]spiro[naphtho 1,2-b][1,4]oxathiine-2,4′-piperidine-5,6-dione], the IC50 in assay [1] was 7.57 µM; in assay [2], 1.49 µM; in assay [3], 1.91 µM; in assay [4] it was 1.74 µM; in assay [5], 1.33 µM; in assay [6], 11 µM. The “Fold Selectivity (NCM-460/DLD1)” value in assay [6] is recorded as 7.4.

For the molecule `O=C1C(=O)c2ccccc2C2=C1SCC1(CCN(C(=O)c3ccncc3)CC1)O2` [Compound 57, 1′-isonicotinoylspiro[naphtho[1,2-b][1,4]oxathiine-2,4′-piperidine]-5,6-dione], the IC50 in assay [1] came to 24.8 µM; in assay [2] it was 4.29 µM; in assay [3], 12.2 µM; in assay [4], 4.37 µM; in assay [5], 5.36 µM; in assay [6] it was 9.91 µM. The “Fold Selectivity (NCM-460/DLD1)” value in assay [6] worked out at 2.3.

`Cc1nn(-c2ccccc2)nc1C(=O)N1CCC2(CC1)CSC1=C(O2)c2ccccc2C(=O)C1=O` [Compound 58, 1′-[(5-methyl-2-phenyl-2H-1,2,3-triazol-4-yl)carbonyl]spiro[naphtho[1,2-b][1,4]oxathiine-2,4′-piperidine]-5,6-dione]: the IC50 in assay [1] was determined as 42.2 µM; in assay [2], 13.7 µM; in assay [3], 12.2 µM; in assay [4], 14.2 µM; in assay [5], 11 µM; in assay [6], 79.9 µM. The “Fold Selectivity (NCM-460/DLD1)” value in assay [6] turned out to be 5.8.

Turning to `O=C1C(=O)c2ccccc2C2=C1SCC1(CCN(C(=O)c3cccnc3)CC1)O2` [Compound 59, 1′-(pyridin-3-ylcarbonyl)spiro[naphtho[1,2-b][1,4]oxathiine-2,4′-piperidine]-5,6-dione], the IC50 was 16.8 µM in assay [1]; 4.1 µM in assay [2]; 10.4 µM in assay [3]; 4.24 µM in assay [4]; 4.24 µM in assay [5]; 10.7 µM in assay [6]. Moreover, the “Fold Selectivity (NCM-460/DLD1)” value in assay [6] came to 2.6.

In the case of `Cc1cccc(C(=O)N2CCC3(CC2)CSC2=C(O3)c3ccccc3C(=O)C2=O)c1` [Compound 60, 1′-(3-methylbenzoyl)spiro[naphtho[1,2-b][1,4]oxathiine-2,4′-piperidine]-5,6-dione], the IC50 was 8.59 µM in assay [1]; 2.21 µM in assay [2]; 4.16 µM in assay [3]; 3.38 µM in assay [4]; 2.39 µM in assay [5]; 10.5 µM in assay [6]. Further, the “Fold Selectivity (NCM-460/DLD1)” value in assay [6] is 4.8.

Take `CS(=O)(=O)N1CCC2(CC1)CSC1=C(O2)c2ccccc2C(=O)C1=O` [Compound 75, 1′-(methylsulfonyl)spiro[naphtho[1,2-b][1,4]oxathiine-2,4′-piperidine]-5,6-dione]: the IC50 in assay [1] was 19.4 µM; in assay [2], 4.45 µM; in assay [3], 7.82 µM; in assay [4], 2.93 µM; in assay [5], 4.02 µM; in assay [6], 9.56 µM. Besides, the “Fold Selectivity (NCM-460/DLD1)” value in assay [6] was found to be 2.1.

In the case of `O=C1C(=O)c2ccccc2C2=C1SCC1(CCN(S(=O)(=O)c3ccc(Cl)c(Cl)c3)CC1)O2` [Compound 76, 1′-[(3,4-dichlorophenyl)sulfonyl]spiro[naphtho[1,2-b][1,4]oxathiine-2,4′-piperidine]-5,6-dione], the IC50 in assay [1] was above 100 µM; in assay [2] it was 27.1 µM; in assay [3], 28 µM; in assay [4], above 33.3 µM; in assay [5], 14.3 µM; in assay [6] it was 100 µM. The “Fold Selectivity (NCM-460/DLD1)” value in assay [6] came out at 3.7.

Turning to `O=C1C(=O)c2ccccc2C2=C1SCC1(CCN(S(=O)(=O)c3c(Cl)nc4sccn34)CC1)O2` [Compound 77, 1′-[(6-chloroimidazo[2,1-b][1,3]thiazol-5-yl)sulfonyl]spiro[naphtho[1,2-b][1,4]oxathiine-2,4′-piperidine]-5,6-dione], the IC50 in assay [1] is above 100 µM; in assay [2], 20.6 µM; in assay [3], 49.2 µM; in assay [4], 22.9 µM; in assay [5], 16.1 µM; in assay [6] it was 76.4 µM. In addition, the “Fold Selectivity (NCM-460/DLD1)” value in assay [6] was 3.7.

As to `O=C1C(=O)c2ccccc2C2=C1SCC1(CCN(S(=O)(=O)c3cccs3)CC1)O2` [Compound 78, 1′-(2-thienylsulfonyl)spiro[naphtho[1,2-b][1,4]oxathiine-2,4′-piperidine]-5,6-dione], the IC50 turned out to be 46.7 µM in assay [1]; 11.1 µM in assay [2]; 12.7 µM in assay [3]; 14.7 µM in assay [4]; 11.1 µM in assay [5]; 30 µM in assay [6]. Also, in assay [6], the “Fold Selectivity (NCM-460/DLD1)” value is listed as 2.7.

These data come from US7902354B2, “Lapachone compounds and methods of use thereof” (ArQule, Inc., priority 2006, dated 2011).
